# Reference: article PMC4575030 (PLoS ONE, 2015)
# Experiments:
# [1] = tested on: rat formalin model of pain; assay: Formalin test (formalin-induced flinching); format: in vivo; conditions: for Decrease in formalin flinching: phase 2 (10 to 40 min), percent of vehicle
# Procedure: Formalin-induced flinching was measured using the Automated Nociception Analyzer (ANA) (University Anesthesia Research & Development Group, La Jolla, CA). Rats were habituated to the ANA testing chambers for at least 30 minutes prior to the formalin injection. At test time, each rat was removed from the testing chamber and gently wrapped in a towel. 50 μL of 2.5% formalin solution was injected into the dorsal surface of the left hind paw with a 30 gauge needle. A small metal band was then affixed to the plantar side of the injected paw with one drop of super glue. The animal was then unwrapped from the towel, placed back in the testing chamber, and flinching behavior was scored for 40 minutes by the ANA software. While minimized, non-painful paw movement from the natural activity of an alert animal could be erroneously binned by the automated recording system as a nociceptive behavior. These behaviors are not subtracted from the flinching total. […] Total flinching behavior was used as the endpoint of the assay.
# naïve rats = assay: Open field activity (basic movement); format: in vivo, rat; conditions: formalin-naïve rats
# Procedure: Basic movement was measured using the Photobeam Activity System Open Field (San Diego Instruments, San Diego, CA) equipped with 48 infrared photocell emitters and detectors. Photobeams used to measure vertical movement were positioned 14 cm above the test chamber floor. Each testing chamber was made of Plexiglas (41 x 41 x 36 cm) and was devoid of any bedding. At the beginning of the test session, each animal was placed in a separate testing chamber and the room lights were turned off. Basic movement was measured for 30 minutes.
# [2] = tested on: rat spinal nerve ligation model; assay: Tactile allodynia following spinal nerve ligation (SNL); format: in vivo; conditions: 30 mg/kg, 120 min after dosing, day 21 after SNL; not statistically significant (p = 0.99)
# Description: A decrease in tactile response threshold, using calibrated von Frey filaments (Stoelting Co., Wood Dale, IL), was used as a measure of tactile allodynia following spinal nerve ligation (SNL). Prior to surgery, each animal underwent baseline testing to determine suitability for the assay. Briefly, animals were placed on a raised platform with a grid meshed floor. The distance between the mesh was ¼”. Once acclimated, each animal received a series of trials according to the up-down method described by Dixon. Animals showing a response to less than 4 g were deemed already sensitive to the stimulus and were removed. A maximal fiber of 15 g was employed as a cut-off threshold. Surgery was then performed with a procedure slightly modified by that reported by Kim and Chung. Briefly, the left L5 spinal nerve was carefully isolated from the surrounding tissue. Using 5–0 silk suture, a tight ligature was placed around L5 nerve. Muscle and skin were then closed using 4–0 absorbable suture and wound clips. Animals were allowed to recover and were carefully monitored for seven days to ensure proper healing and ensure there was no mutilation of the affected limb. On day 21 post-surgery, animals were again tested to ensure the development of tactile allodynia. […] Animals were then randomized into groups and dosed with the test compound, gabapentin, or vehicle and assessed as stated above. […]
# C-fiber nociceptors = assay: In vivo teased-fiber recording from tibial nerve after CFA, C-fibers; parameters: species or system rat; conditions: for Heat response threshold of C-fiber nociceptors: n = 9
# Procedure: A total of 55 adult, male, Sprague–Dawley rats (Harlan, Indianapolis, IN) weighing 300–350 g were used for electrophysiology. To ensure that electrophysiology studies were performed on rats with mechanical hyperalgesia, behavioral measures of mechanical hyperalgesia were obtained before and at 24 h after administration of CFA (and just prior to the electrophysiological studies). Mechanical hyperalgesia was assessed by determining the frequency of paw withdrawal evoked by mechanical stimulation using a 26 g Semmes-Weinstein von Frey monofilament (Stoelting, Wood Dale, IL). Rats were placed on an elevated wire mesh platform under individual plastic cages and acclimated to the testing environment for 30 minutes prior to testing. The monofilament was applied to the mid-plantar surface of the hindpaw ten times for 1–2 s each with an inter-stimulus interval of approximately 5–10 s and the paw withdrawal frequency (percent) was determined. Baseline measures were determined for each rat for three consecutive days prior to injection of CFA. Mechanical hyperalgesia was defined as an increase in the paw withdrawal frequency.
# Rats were initially anesthetized by intramuscular injection of ketamine (100 mg/kg) and xylazine ([…]). […] Core body temperature was maintained at 37°C using a feedback-controlled heating pad (Harvard Apparatus, Holliston, MA, USA).
# Recordings were made from cutaneous afferent fibers of the left tibial nerve using a teased-fiber approach. The tibial nerve was dissected from the surrounding tissue and the overlaying skin was sewn to a metal ring to form a pool that was filled with warm mineral oil. The tibial nerve was placed onto a mirror platform for fine dissection with sharpened fine forceps (Fine Science Tools, Foster City, CA, USA). Teased fibers were placed onto a tungsten wire electrode and action potentials were recorded extracellularly. […] Only fibers with clearly discriminated single action potentials were studied. Responses of individual fibers were analyzed off-line using the Spike2 data analysis program (Cambridge Electronic Design, Cambridge, UK).
# Afferent fibers were found by their ongoing spontaneous activity and by mechanically stimulating the plantar surface of the hind paw with the experimenter's finger or von Frey monofilaments. Once a single fiber was identified that was excited by mild pinching but not light touch, its mechanical receptive field was marked on the skin using a felt-tipped pen.
# Conduction velocity was determined by electrically stimulating the skin outside the fiber’s receptive field with pin electrodes (200 μs pulse width at 0.5 Hz) to electrically activate the fiber. The fiber was stimulated at 1.5 times its electrical threshold and the conduction latency was measured from the time of the electrical stimulus artifact to the evoked action potential. Conduction distance was determined by measuring the distance from the fiber's receptive field to the recording electrode. Conduction velocity (m/s) was calculated by dividing conduction distance by conduction latency. Fibers were classified as Aδ-fiber nociceptors if they had conduction velocities between 2.4–25.0 m/s and as C-fiber nociceptors if conduction velocity was < 2.4 m/s.
# Nociceptors were classified functionally according to their responsiveness to mechanical and heat stimulation. Mechanical stimuli used to classify units included light brushing with the tip of a cotton swab, mildly pinching with a pair of forceps, and application of von Frey filaments. Mechanical response thresholds were determined using a series of von Frey monofilaments and defined as the weight (g) required to evoke at least one action potential when applied to the receptive field for 1–2 s. Heat stimuli were delivered using a feedback-controlled Peltier device (Yale Electronics, New Haven, CT) with a contact area of 1 cm^2. […]
# Nav1.7 = tested on: Nav1.7; parameters: method as in PMID 21634377; conditions: extrapolated; cited from earlier work
# [3] = 30 minutes after i.v. injection
# [4] = 60 minutes after i.v. injection
smiles,measurement,setting,value
"CC(=O)Nc1cccc(Nc2ncnc(N3CCC(OCc4ccc(OC(F)(F)F)cc4)CC3)n2)c1C [Compound 52, N-(2-methyl-3-((4-(4-((4-(trifluoromethoxy)benzyl)oxy)-1-piperidinyl)-1,3,5-triazin-2-yl)amino)phenyl)acetamide]",Decrease in formalin flinching,[1]; 3 mg/kg p.o.,9%
same,Decrease in formalin flinching,[1]; 10 mg/kg p.o.,22%
same,Decrease in formalin flinching,[1]; 30 mg/kg p.o.,79%
same,Analgesic efficacy,"[1]; rat formalin model, significant (p < 0.05) decrease in flinching at a dose without a reduction in open field movement that obviated the result",Yes
same,"Reduction in formalin flinching, result in words",[1]; rat formalin test,statistically significant and plasma concentration-dependent reduction in formalin flinching
same,"Behavioral analgesic efficacy in the formalin model, i.v. delivery","[1]; same formulation and i.v. route as electrophysiology, data not shown",equivalent to morphine
same,Decrease in basic movement,naïve rats; 3 mg/kg p.o.,3%
same,Decrease in basic movement,"naïve rats; 10 mg/kg p.o., negative value = increase",11%
same,Decrease in basic movement,naïve rats; 30 mg/kg p.o.,54%
same,Reversal of tactile allodynia compared to the vehicle group,[2],15%
same,"Mean cumulative number of action potentials evoked by all heat stimuli, C-fibers",C-fiber nociceptors; [3],19.2 ± 3.6
same,"Mean number of action potentials evoked by a suprathreshold mechanical stimulus (250 mN), C-fibers",C-fiber nociceptors; [3],19.9 ± 5.4
same,Mechanical response threshold of C-fiber nociceptors,C-fiber nociceptors; [3],60.4 ± 9.8 mN
same,Heat response threshold of C-fiber nociceptors,C-fiber nociceptors; [3],47.0 °C
same,"Number of action potentials evoked by heat stimuli, C-fibers","C-fiber nociceptors; 30 minutes after i.v. injection, 48°C and 50°C reduced",reduced the number of action potentials evoked by heat stimuli
same,"Mean number of action potentials evoked by a suprathreshold mechanical stimulus (250 mN), C-fibers",C-fiber nociceptors; [4],11.6 ± 3.2
same,Mechanical response threshold of C-fiber nociceptors,C-fiber nociceptors; [4],60.1 ±9.1 mN
same,"Mean cumulative number of action potentials evoked by all heat stimuli, C-fibers",C-fiber nociceptors; before injection,39.2 ± 6.5
same,"Mean number of action potentials evoked by a suprathreshold mechanical stimulus (250 mN), C-fibers","C-fiber nociceptors; before injection, n = 8",28.9 ± 6.2
same,Heat response threshold of C-fiber nociceptors,C-fiber nociceptors; before injection,45.0 °C
same,Mechanical response threshold of C-fiber nociceptors,"C-fiber nociceptors; before injection, n = 11",44.5 ± 7.5 mN
same,Time after beginning the injection at which the rate of ongoing spontaneous activity was significantly decreased,"C-fiber nociceptors; i.v. 2.5 mg over 15 min, remained decreased until 26 minutes",≤ 12 min
same,"Spontaneous firing of C-fiber nociceptors, after compound","C-fiber nociceptors; one day after CFA, after i.v. 2.5 mg (approximately 8 mg/kg)",~0.2 Hz
same,"Spontaneous firing of C-fiber nociceptors, before compound","C-fiber nociceptors; one day after CFA, before i.v. injection",approximately 0.7 Hz
same,Preference for inactivated versus non-inactivated Nav1.7,Nav1.7,100 fold
